Results reported in doi:10.1101/2025.10.03.680348v2, “Cathepsin K as a Key Protease in Processing of SARS-CoV-2 Spike Activation Sites and a Target of Dual-Inhibition” (biorxiv, 2025).

Assays:
[1] = molecular target: T1, hCatB (Human Cathepsin B) (Homo sapiens, UniProt P07858); experiment: fluorogenic inhibition assay, Z-FR-AMC ([…]); format: biochemical; details: 0.1 M sodium acetate pH 5.5, 2.5 mM DTT, 2.5 mM EDTA, room temperature
T1 construct: gene CTSB; recombinant human enzyme, gift of J. Mort

[2] = molecular target: T2, hCatL (human Cathepsin L) (Homo sapiens, UniProt P07711); experiment: fluorogenic inhibition assay, Z-FR-AMC ([…]); format: biochemical; details: 0.1 M sodium acetate pH 5.5, 2.5 mM DTT, 2.5 mM EDTA, room temperature
T2 construct: gene CTSL; native enzyme from human liver, commercial (Fisher Scientific)
T2 sequence (P07711 114-288): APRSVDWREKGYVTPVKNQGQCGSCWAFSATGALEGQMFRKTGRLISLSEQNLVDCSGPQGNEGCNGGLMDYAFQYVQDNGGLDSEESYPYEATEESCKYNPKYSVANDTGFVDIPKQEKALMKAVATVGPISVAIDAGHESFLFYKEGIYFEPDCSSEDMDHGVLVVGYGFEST
T2 sequence (P07711 292-333): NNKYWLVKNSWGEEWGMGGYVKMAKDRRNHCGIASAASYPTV

`CC(C)(C)[C@H](NC(=O)C(F)(F)F)C(=O)N1C[C@H]2[C@@H]([C@H]1C(=O)N[C@H](C#N)C[C@@H]1CCNC1=O)C2(C)C` [Nirmatrelvir] was tested, and the “not inhibited by 10 μM” value [1] was over 10 µM and the “not inhibited by 10 μM” value [2] was over 10 µM.
